Series [1] concerns the target T1, Hepatic sodium/bile acid cotransporter (Homo sapiens, UniProt Q14973).
T1 sequence (Q14973 whole entry): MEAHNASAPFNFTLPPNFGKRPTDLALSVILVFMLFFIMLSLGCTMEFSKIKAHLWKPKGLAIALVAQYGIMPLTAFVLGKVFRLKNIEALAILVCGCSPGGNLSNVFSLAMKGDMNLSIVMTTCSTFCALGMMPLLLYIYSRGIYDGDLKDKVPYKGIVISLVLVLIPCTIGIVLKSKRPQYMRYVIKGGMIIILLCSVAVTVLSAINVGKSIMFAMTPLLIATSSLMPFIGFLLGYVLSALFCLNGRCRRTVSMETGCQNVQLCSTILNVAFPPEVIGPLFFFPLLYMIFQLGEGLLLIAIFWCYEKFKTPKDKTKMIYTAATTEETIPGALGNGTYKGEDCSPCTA
Kind of series: Inhibition of human NTCP-mediated [3H]-TCA uptake expressed in human HepG2 cells at 3.3 uM incubated for 10 mins by liquid scintillation counter analysis. The class given is cell-based. Conditions: hepg2, 10 min.

For series [2], the system named is Hepatitis B virus. Kind of series: Antiviral activity against HBV infected in human HepG2-NTCP cells assessed as reduction in HBeAg secretion at 1 to 10 uM incubated for 24 hrs followed by replacement with fresh medium and measured at day 5 post infection by ELISA. The class given is functional, organism-based. Conditions: dose 1-10 µM.
The nature of series [3]: Stability in mouse liver microsomes assessed as intrinsic clearance at 1 uM preincubated for 5 mins followed by NADPH addition and measured upto 60 mins by LC-MS analysis. The class given is ADME, Microsome. To be noted: time 65 min, read-out: CLH. On the technique in general: Microsomes from liver hold many membrane-bound enzymes, among them those of drug oxidation.
For series [4], the target named is T1, Hepatic sodium/bile acid cotransporter. Kind of series: Inhibition of human NTCP-mediated [3H]-TCA uptake expressed in human HepG2 cells pretreated for 2 hrs followed by [3H]-TCA addition in absence of FBS. It is filed as cell-based.
Series [5] relates to Hepatitis B virus. Kind of series: Antiviral activity against HBV infected in human HepG2-NTCP cells assessed as reduction in HBeAg secretion incubated for 24 hrs followed replacement with fresh medium and measured at day 5 post infection by ELISA. The class given is functional, organism-based. In general terms: An ELISA detects its analyte on a solid surface through an enzyme-linked reagent.

Series [6] can be described thus: Stability in mouse liver microsomes assessed as half life at 1 uM preincubated for 5 mins followed by NADPH addition and measured upto 60 mins by LC-MS analysis. The class given is ADME, Microsome. To be noted: time 65 min.
The target in series [7] is T1, Hepatic sodium/bile acid cotransporter. Kind of series: Inhibition of human NTCP-mediated [3H]-TCA uptake expressed in human HepG2 cells in presence of 20 % FBS. The class given is cell-based.
For series [8] the target is unchanged. Kind of series: Inhibition of human NTCP-mediated [3H]-TCA uptake expressed in human HepG2 cells in presence of 50 % FBS. The class given is cell-based.

The source made the active and inactive calls. No cut-off for these calls is given here.

By IC50 is commonly meant the concentration needed to halve the response being measured. As a reminder, the half-life is the time in which the quantity being followed falls by half.

As for `CC(=O)O[C@@H]1CC[C@@]2(C)[C@@H](C1)C[C@H](O)[C@@H]1[C@@H]2CC[C@]2(C)[C@@H]([C@H](C)CCC(=O)NCCS(=O)(=O)O)CC[C@@H]12`, in series [1], the “inhibition (INH)” value is “Not Active”. In addition, the result in the series on Hepatitis B virus [2] was inactive.
For the compound `C[C@H](CCC(=O)N[C@@H]1CC[C@@]2(C)[C@@H](C1)C[C@H](O)[C@@H]1[C@@H]2CC[C@]2(C)[C@@H]([C@H](C)CCC(=O)NCCS(=O)(=O)O)CC[C@@H]12)[C@H]1CC[C@H]2[C@@H]3[C@@H](O)C[C@@H]4C[C@H](O)CC[C@]4(C)[C@H]3CC[C@]12C`, the microsomal CLint at 1 µM in series [3] was determined as 994 µL/min/mg. Also, the half-inhibitory concentration (IC50) in series [4] is 0.0003 µM; with Hepatitis B virus [5] it was 0.005 µM. For the same compound, in series [6], the half-life at 1 µM turned out to be 0.7 min.
Turning to `C[C@@H]1CCC(=O)NC(C(=O)O)CNC(=O)CC[C@@H](C)[C@H]2CC[C@H]3[C@@H]4[C@@H](O)C[C@@H]5C[C@@H](CC[C@]5(C)[C@H]4CC[C@]23C)n2cc(nn2)CO[C@@H]2CC[C@@]3(C)[C@@H](C2)C[C@H](O)[C@@H]2[C@@H]3CC[C@]3(C)[C@@H]1CC[C@@H]23` (stereo partly specified), the half-maximal inhibitory concentration (IC50) in series [7] was found to be 0.109 µM; in series [4], 0.0179 µM; with Hepatitis B virus [5] it was 0.093 µM; in series [8], 0.167 µM.
With `C[C@H](CCc1cn([C@@H]2CC[C@@]3(C)[C@@H](C2)C[C@H](O)[C@@H]2[C@@H]3CC[C@]3(C)[C@@H]([C@H](C)CCC(=O)NCCS(=O)(=O)O)CC[C@@H]23)nn1)[C@H]1CC[C@H]2[C@@H]3[C@@H](O)C[C@@H]4C[C@H](O)CC[C@]4(C)[C@H]3CC[C@]12C`, the microsomal CLint at 1 µM in series [3] turned out to be 55.2 µL/min/mg. Further, the half-inhibitory concentration (IC50) was above 10 µM in series [7], 0.0245 µM in series [4], 0.024 µM in the series on Hepatitis B virus [5] and above 10 µM in series [8]. Also, in series [6], the half-life at 1 µM is 12.6 min.

The values above are taken from ChEMBL document CHEMBL4834431, “Design of Dimeric Bile Acid Derivatives as Potent and Selective Human NTCP Inhibitors” (J Med Chem, 2021).
